Where “and” joins values, the source holds several entries; their conditions need not be identical. Identical values can stand only once. Calls of active or inactive are those of the source.
Columns and labels:
DLD-1 [1] = test: cytotoxicity in DLD-1 colorectal cells, late-stage follow-up, cytotoxicity control for KLF5 inhibitor project, cell-based, luminescence, round 1 (AID 485338); type: functional; conditions: Homo sapiens
[2] = Luminescence-based counterscreen assay for KLF5 inhibitors: dose response cell-based high throughput screening assay to identify cytotoxic compounds using the IEC-6 intestinal epithelial cell line. [Related pubchem assays: 1700 (Primary screen.), 1834 (Confirmation screen.), 1858 (Summary AID.), 1905 (Counterscreen.)]; type: functional
[3] = inhibitors of firefly luciferase expression or activity, dose response, H4 neuroglioma cells, luminescence (AID 1990); type: functional, cell-based
[4] = inhibitors of SNCA 5'UTR-driven reporter translation, confirmation, H4 neuroglioma cells, luminescence (AID 1988); type: functional, cell-based
DLD-1 [5] = test: reduction of KLF5 protein levels, late-stage follow-up, orthogonal assay for KLF5 inhibitor project, western blot, chemiluminescence, DLD-1 cells, titration (AID 485336); type: functional, cell-based; conditions: Homo sapiens
Vero [6] = test: cells; type: functional; conditions: Chlorocebus sabaeus
Vero [7] = test: host cell cytotoxicity of antiviral hits, dose response, cytotoxicity control for West Nile virus antiviral project, secondary assay (AID 1650); type: functional; conditions: Chlorocebus sabaeus
[8] = Luminescence Cell-Based Dose Response HTS to Identify Inhibitors of 5'UTR Stem-Loop Driven Prion Protein mRNA Translation in H4 Neuroglioblastoma Cells. [Related pubchem assays: 1827 (Project Summary), 1813 (Primary HTS)]; type: functional
Vero [9] = test: cells; type: functional, cell-based; conditions: Chlorocebus sabaeus
Coagulation factor XII = target: T1, Coagulation factor XII (Homo sapiens, UniProt P00748); test: Factor XIIa Dose Response Confirmation from Single Well HTS. [Related pubchem assays (depositor defined):AID701]; type: functional
T1 sequence (P00748 whole entry): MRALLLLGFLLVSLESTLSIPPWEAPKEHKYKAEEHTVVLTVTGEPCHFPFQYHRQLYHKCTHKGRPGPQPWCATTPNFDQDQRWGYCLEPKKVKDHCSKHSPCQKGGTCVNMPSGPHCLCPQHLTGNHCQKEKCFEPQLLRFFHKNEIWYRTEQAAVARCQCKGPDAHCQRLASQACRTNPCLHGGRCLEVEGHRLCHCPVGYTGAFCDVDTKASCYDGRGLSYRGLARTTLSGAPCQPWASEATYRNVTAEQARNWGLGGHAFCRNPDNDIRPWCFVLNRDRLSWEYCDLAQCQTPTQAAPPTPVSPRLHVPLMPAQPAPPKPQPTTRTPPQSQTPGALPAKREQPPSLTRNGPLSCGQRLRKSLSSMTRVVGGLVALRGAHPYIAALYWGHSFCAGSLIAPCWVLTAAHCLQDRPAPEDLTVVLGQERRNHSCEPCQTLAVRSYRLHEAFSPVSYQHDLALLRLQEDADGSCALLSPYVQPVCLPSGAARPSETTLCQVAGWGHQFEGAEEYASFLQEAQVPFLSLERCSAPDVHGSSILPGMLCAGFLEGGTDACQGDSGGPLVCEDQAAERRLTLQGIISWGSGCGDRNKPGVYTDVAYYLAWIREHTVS

Prothrombin = Prothrombin (Homo sapiens, UniProt P00734); test: Thrombin 1536 HTS Dose Response Confirmation. [Related pubchem assays: 1046 (Thrombin 1536 HTS; hits were confirmed in this assay)]; type: functional
T-cell = test: inhibitors of CD8+ T cell–vesicle binding, dose response, mouse 2C CD8+ T cells, flow cytometry (AID 485284); type: functional
[10] = Luminescence Cell-Based Dose Retest to Confirm Inhibitors of Cancer Stem Cells. [Related pubchem assays (depositor defined):AID2717, AID2721]; type: functional; conditions: Homo sapiens
[11] = THP-1 cell cytotoxicity, dose response, cytotoxicity control for non-replicating M. tuberculosis project (AID 489025); type: functional
[12] = target: T2, Heat shock factor protein 1 (Mus musculus, UniProt P38532); test: inhibition of MG132-induced HSE-luciferase signal, confirmation, cell-based, NIH3T3, luminescence, dose retest (AID 2382); type: functional;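 note: NIH3T3 fibroblasts with HSF1-driven luciferase reporter stressed by proteasome inhibitor MG132; luminescence from HSF1-driven luciferase expression after 8 hours of MG132 stress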
T2 sequence (P38532 whole entry): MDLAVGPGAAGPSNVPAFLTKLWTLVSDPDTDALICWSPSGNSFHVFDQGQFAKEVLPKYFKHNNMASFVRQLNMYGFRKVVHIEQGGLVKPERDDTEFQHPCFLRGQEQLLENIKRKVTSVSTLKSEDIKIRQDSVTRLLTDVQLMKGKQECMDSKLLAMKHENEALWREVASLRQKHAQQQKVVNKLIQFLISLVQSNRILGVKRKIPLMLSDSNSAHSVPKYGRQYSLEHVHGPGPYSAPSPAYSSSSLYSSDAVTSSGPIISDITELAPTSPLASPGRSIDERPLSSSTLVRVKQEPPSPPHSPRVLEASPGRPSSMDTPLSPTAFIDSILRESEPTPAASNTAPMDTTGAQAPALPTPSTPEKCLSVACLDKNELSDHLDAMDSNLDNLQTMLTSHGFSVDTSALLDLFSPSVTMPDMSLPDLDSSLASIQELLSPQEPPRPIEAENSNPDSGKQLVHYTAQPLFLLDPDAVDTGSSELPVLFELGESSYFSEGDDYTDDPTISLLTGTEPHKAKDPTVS

HEK293 = test: inhibitors of LMP1-driven NF-kB reporter, dose response, cell-based, HEK293, luciferase, cherry-pick (AID 588343); type: functional; conditions: Homo sapiens
[13] = Vero E6 cell cytotoxicity, dose response, cytotoxicity control for non-replicating M. tuberculosis project, secondary assay (AID 492998); type: functional, VeroE6; conditions: Vero C1008
[14] = growth suppression of beta-catenin-knockout colon cells, dose response, cell-based, HCT116, human colon tumor (AID 1045); type: functional;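 note: HCT116 colon tumor cells with beta catenin knocked out; cells exposed to compound for 60 hours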
X-box-binding protein 1 = X-box-binding protein 1 (Homo sapiens, UniProt P17861); type: functional, Cricetulus griseus;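 note: confirmatory dose-response counter-screen serving a CHOP assay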
[15] = target: Sphingosine 1-phosphate receptor 1 (Homo sapiens, UniProt P21453); type: functional;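 note: Tango beta-arrestin reporter U2OS cells stimulated with S1P near its EC80; inhibitor potency meaning antagonism of receptor activation by the natural agonist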
[16] = target: DNA damage-inducible transcript 3 protein (Mus musculus, UniProt P35639); type: functional, Cricetulus griseus
Beta-galactosidase = Beta-galactosidase (Escherichia coli, UniProt Q8VNN2); test: beta-galactosidase enzyme inhibitors and activators, dose response, artefact control for CCR6 antagonist project, biochemical, E. coli enzyme, set 3 (AID 504712); type: functional
cells = type: functional
[17] = target: T3, Sphingosine 1-phosphate receptor 4 (Homo sapiens, UniProt O95977); test: Fluorescence dose response cell-based high throughput screening assay for antagonists of the Sphingosine 1-Phosphate Receptor 4 (S1P4). [Related pubchem assays: 1524 (Confirmation in triplicates.), 1510 (Primary screen.)]; type: functional
T3 sequence (O95977 whole entry): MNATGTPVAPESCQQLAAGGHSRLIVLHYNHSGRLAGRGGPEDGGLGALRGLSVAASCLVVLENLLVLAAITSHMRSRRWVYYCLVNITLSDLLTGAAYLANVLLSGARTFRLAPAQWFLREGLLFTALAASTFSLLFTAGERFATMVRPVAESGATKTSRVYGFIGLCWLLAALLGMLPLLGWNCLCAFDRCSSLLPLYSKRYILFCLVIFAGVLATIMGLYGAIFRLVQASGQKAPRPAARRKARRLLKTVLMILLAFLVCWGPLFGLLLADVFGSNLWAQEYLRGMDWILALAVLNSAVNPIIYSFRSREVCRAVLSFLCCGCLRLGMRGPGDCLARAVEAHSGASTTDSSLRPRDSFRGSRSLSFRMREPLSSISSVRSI

[18] = growth suppression of PTEN-null colon cells, dose response, cell-based, HCT116 PTEN knockout (AID 1047); type: functional;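 note: HCT116 colon tumor cells with PTEN knocked out; cells exposed to compound for 60 hours before readout; potency for loss of cell viability measured by luminescence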
Ion channel NompC = Ion channel NompC (Danio rerio, UniProt Q7T1G6); test: Dose response cell-based high-throughput screening assay for agonists of the transient receptor potential channel N1 (TRPN1). [Related pubchem assays (depositor defined):AID1424, AID1448]; type: functional
Mucolipin-3 = target: T4, Mucolipin-3 (Homo sapiens, UniProt Q8TDD5); test: Fluorescence counterscreen assay for […] agonists: dose response cell-based high-throughput screening assay to identify agonists of the transient receptor potential channel ML3 (TRPML3). [Related pubchem assays: 1424, 1448 ]; type: functional
T4 sequence (Q8TDD5 whole entry): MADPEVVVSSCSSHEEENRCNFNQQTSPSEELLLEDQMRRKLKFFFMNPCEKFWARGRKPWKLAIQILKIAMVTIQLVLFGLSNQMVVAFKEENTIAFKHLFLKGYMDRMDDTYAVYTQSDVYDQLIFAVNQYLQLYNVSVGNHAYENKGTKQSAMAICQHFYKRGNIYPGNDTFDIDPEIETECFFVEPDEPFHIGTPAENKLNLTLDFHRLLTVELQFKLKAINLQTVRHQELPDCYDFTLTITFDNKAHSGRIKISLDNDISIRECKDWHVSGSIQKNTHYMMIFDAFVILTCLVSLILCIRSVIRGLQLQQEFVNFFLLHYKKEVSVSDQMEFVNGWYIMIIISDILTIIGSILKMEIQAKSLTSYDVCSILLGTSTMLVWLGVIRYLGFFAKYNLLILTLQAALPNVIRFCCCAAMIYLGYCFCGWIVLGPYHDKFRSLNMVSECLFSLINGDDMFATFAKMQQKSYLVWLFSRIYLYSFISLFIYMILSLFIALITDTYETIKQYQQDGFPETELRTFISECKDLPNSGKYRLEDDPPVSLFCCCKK

[19] = target: T3, Sphingosine 1-phosphate receptor 4; test: Late-stage fluorescence dose response cell-based assay to identify agonists of the Sphingosine 1-Phosphate Receptor 4 (S1P4): purchased compounds EC50. [Related pubchem assays (depositor defined):AID1509, AID1523, AID1563, AID1686, AID1701, AID1801]; type: functional
[20] = target: Glyceraldehyde-3-phosphate dehydrogenase (Homo sapiens, UniProt P04406)
[21] = target: T5, Alkaline phosphatase, tissue-nonspecific isozyme (Homo sapiens, UniProt P05186); test: human TNAP enzyme inhibitors, SAR follow-up, biochemical, luminescent, dose response (AID 1056)
T5 sequence (P05186 whole entry): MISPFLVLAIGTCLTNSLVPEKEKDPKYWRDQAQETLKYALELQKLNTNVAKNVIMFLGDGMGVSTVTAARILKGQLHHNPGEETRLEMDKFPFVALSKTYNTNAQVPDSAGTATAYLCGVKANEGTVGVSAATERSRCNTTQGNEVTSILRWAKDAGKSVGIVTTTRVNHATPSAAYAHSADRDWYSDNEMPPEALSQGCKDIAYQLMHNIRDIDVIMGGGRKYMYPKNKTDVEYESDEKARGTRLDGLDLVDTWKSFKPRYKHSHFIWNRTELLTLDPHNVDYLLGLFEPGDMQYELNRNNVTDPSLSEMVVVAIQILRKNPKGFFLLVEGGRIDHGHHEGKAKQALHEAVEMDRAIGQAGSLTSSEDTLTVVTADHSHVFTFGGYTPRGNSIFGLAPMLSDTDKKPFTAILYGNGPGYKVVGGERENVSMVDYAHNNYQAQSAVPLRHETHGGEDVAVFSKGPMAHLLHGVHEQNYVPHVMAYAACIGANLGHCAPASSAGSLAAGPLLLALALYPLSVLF

[22] = target: T6, Type-1 angiotensin II receptor (Homo sapiens, UniProt P30556); test: AT1 receptor agonists, dose response, selectivity assay for APJ receptor agonist project, cell-based, uHTS hits (AID 488865); type: functional;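 note: beta-arrestin recruitment to AT1 measured by enzyme fragment complementation luminescence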
T6 sequence (P30556 whole entry): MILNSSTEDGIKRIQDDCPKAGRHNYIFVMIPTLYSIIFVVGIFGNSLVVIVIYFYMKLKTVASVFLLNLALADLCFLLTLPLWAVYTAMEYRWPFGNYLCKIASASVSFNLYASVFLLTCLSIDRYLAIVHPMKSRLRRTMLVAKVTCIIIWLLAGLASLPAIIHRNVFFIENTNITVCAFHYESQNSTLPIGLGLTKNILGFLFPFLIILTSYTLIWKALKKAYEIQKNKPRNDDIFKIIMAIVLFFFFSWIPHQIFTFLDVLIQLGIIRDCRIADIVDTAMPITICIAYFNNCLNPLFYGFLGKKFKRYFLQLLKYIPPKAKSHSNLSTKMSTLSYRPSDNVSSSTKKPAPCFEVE

Ion channel NompC, sequence (Q7T1G6 whole entry): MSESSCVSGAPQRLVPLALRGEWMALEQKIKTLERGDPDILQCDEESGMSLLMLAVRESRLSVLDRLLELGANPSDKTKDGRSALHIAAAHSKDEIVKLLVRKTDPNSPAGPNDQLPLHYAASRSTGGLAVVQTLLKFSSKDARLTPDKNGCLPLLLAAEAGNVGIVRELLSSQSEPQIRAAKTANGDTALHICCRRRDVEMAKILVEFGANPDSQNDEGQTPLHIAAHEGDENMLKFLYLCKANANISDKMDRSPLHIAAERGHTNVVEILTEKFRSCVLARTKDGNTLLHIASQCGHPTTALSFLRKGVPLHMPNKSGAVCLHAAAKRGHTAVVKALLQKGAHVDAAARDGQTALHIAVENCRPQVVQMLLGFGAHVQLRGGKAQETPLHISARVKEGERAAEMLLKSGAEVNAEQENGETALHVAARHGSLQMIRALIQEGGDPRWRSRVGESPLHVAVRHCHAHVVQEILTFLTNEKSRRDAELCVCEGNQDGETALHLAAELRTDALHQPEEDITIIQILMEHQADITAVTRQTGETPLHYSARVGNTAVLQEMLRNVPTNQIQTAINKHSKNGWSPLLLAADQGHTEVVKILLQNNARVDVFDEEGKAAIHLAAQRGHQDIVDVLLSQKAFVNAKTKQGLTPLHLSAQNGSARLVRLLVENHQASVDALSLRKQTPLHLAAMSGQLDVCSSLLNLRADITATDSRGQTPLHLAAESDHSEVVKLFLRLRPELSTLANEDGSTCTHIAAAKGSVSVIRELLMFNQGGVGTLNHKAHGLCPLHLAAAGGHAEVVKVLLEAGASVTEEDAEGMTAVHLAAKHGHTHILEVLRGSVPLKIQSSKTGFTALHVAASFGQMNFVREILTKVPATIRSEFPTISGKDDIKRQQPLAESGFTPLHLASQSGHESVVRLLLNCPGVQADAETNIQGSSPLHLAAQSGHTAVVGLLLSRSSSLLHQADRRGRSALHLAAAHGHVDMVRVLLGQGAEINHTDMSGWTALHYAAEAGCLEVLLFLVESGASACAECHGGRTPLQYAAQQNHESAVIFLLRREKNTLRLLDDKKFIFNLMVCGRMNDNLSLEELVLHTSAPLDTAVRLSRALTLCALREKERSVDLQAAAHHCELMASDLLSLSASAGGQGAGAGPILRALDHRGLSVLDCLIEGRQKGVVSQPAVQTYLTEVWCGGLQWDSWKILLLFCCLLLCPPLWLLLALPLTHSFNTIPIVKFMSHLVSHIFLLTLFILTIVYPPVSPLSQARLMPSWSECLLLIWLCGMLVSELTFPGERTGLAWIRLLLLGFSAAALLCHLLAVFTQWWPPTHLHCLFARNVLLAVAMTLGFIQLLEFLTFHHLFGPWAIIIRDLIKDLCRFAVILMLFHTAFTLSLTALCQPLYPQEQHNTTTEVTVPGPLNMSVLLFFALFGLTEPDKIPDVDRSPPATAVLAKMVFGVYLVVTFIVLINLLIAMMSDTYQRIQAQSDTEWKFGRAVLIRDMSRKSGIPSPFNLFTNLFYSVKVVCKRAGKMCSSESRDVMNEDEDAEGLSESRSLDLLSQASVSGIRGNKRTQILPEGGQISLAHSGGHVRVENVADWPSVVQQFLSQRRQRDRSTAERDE
X-box-binding protein 1, sequence (P17861 whole entry): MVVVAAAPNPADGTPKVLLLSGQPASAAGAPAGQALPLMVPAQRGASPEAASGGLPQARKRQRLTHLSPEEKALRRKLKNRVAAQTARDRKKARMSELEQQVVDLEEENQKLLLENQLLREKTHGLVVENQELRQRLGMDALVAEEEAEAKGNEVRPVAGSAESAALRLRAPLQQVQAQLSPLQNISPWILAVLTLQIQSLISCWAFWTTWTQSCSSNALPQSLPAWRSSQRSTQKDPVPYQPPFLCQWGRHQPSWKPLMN
DNA damage-inducible transcript 3 protein, sequence (P35639 whole entry): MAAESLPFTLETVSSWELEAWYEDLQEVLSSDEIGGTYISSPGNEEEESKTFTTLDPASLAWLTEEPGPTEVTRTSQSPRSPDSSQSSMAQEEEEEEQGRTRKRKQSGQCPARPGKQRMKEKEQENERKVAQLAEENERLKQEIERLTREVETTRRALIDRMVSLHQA
Glyceraldehyde-3-phosphate dehydrogenase, sequence (P04406 whole entry): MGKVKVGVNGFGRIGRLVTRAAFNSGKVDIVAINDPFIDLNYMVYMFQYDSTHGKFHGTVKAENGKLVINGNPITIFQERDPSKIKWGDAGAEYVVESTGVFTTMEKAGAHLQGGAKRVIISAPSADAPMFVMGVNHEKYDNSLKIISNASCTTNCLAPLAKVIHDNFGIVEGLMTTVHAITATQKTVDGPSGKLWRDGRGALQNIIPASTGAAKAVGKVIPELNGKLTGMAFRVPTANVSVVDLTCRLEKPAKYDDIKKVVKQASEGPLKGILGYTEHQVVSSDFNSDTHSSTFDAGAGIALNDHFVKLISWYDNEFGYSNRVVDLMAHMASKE
Beta-galactosidase, sequence (Q8VNN2 whole entry): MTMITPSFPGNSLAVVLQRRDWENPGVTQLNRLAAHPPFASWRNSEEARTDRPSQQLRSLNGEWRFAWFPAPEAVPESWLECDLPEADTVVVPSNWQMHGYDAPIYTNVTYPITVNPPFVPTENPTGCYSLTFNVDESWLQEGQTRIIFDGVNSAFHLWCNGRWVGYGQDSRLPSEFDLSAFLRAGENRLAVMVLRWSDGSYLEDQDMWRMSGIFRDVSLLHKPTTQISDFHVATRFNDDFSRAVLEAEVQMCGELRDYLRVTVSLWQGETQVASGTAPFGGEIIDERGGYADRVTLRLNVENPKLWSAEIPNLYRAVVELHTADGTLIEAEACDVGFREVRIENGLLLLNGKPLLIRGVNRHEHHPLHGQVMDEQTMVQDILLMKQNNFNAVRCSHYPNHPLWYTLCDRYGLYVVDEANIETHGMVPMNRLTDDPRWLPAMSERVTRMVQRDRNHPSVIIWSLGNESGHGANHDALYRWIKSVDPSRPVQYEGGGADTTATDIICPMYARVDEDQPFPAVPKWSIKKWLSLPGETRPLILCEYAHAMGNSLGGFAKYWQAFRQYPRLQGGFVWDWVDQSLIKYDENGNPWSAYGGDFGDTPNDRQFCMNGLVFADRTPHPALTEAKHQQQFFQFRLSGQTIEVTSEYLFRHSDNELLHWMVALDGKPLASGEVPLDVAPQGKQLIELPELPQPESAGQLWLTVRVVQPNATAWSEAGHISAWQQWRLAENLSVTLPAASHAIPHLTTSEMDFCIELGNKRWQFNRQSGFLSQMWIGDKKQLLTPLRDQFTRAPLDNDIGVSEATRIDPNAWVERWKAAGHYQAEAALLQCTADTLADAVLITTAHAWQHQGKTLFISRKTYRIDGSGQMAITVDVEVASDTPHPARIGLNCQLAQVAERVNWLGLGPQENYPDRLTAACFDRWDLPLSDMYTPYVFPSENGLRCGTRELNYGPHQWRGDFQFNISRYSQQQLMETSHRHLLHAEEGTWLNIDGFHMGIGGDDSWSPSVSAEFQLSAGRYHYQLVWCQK
Sphingosine 1-phosphate receptor 1, sequence (P21453 whole entry): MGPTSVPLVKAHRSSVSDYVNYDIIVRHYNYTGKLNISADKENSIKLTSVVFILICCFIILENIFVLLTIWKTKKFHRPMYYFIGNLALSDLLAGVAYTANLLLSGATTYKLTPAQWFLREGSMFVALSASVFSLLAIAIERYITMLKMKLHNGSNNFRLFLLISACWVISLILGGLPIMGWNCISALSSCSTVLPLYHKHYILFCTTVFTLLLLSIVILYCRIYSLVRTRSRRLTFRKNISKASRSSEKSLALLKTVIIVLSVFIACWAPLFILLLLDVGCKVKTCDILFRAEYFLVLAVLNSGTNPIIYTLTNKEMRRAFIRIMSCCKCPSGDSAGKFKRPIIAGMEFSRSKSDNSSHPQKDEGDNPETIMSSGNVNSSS

For `C[C@@H]1O[C@@H](O[C@H]2C[C@@H](O)[C@]3(CO)[C@H]4[C@H](O)C[C@]5(C)[C@@H](C6=CC(=O)OC6)CC[C@]5(O)[C@@H]4CC[C@]3(O)C2)[C@H](O)[C@H](O)[C@H]1O` [OUABAIN], the IC50 (DLD-1 [1]) was 0.0464 µM (active), the IC50 [2] was > 39.8 µM (not active) and the EC50 [3] was < 0.1 µM (active). The EC50 [4] was < 0.1 µM (active), the IC50 (DLD-1 [5]) was 0.0297 µM (active) and the CC50 (Vero [6]) was 0.13 µM (active). The CC50 (Vero [7]) was 0.16 µM (active), the EC50 [8] was < 0.1 µM (active) and the IC50 (Vero [9]) was < 0.05 µM (active).

For `COc1cccc(-c2nc3ccccc3c(=O)o2)c1`, the IC50 (Coagulation factor XII) was > 50 µM (inconclusive) and the IC50 (Prothrombin) was 6.94 µM (active).

In the case of `CC1(C)Cc2c(C#N)c(NC3CCCCC3)nc(-c3ccco3)c2CO1`, the EC50 (T-cell) is reported as 6.98 µM (active) and the AC50 [10] is reported as 5.72 µM (active).

In the case of `O=C1c2cccc3c([N+](=O)[O-])ccc(c23)C(=O)N1c1ccccn1`, the CC50 [11] is reported as 6.16 µM (active), the EC50 [12] is reported as 12.8 µM (active) and the AC50 (HEK293) is reported as 5.7 µM (active). For the same compound, the CC50 [13] was 12.3 µM (active), the EC50 [14] was 2.38 µM (active) and the “Absolute IC50 (XBP1)” value (X-box-binding protein 1) was 10 µM. For the same compound, the IC50 [15] was 2.29 µM (active), the “Absolute IC50 (CHOP)” value [16] was 10 µM and the IC50 (Beta-galactosidase) was > 66.6 µM (inactive). The IC50 (cells) was 20.3 µM (active), the IC50 [17] was 0.75 µM (active) and the EC50 [18] was 4.17 µM (active).

In the case of `CCOC(=O)Cn1c(=O)oc2cc(S(=O)(=O)Nc3ccc(F)cc3)ccc21`, the EC50 (Ion channel NompC) is reported as > 29.9 µM (inactive) and the EC50 (Mucolipin-3) is reported as > 29.9 µM (not active).

For `Cc1ccc(OCC(=O)Nc2cc(Cl)cc(Cl)c2)c([N+](=O)[O-])n1`, the EC50 [19] was 3.6 µM (active) and > 50 µM (inactive).

In the case of `O=C(O)c1ccc(-c2ccccc2)[nH]1`, the IC50 [20] is reported as > 100 µM (not active) and the IC50 [21] is reported as > 100 µM (inactive).

With `CCOc1cc2[nH]c(=S)n(CC3CCCN3CC)c(=O)c2cc1OCC` (stereo unspecified) the EC50 [22] was > 100 µM (inactive).
